According to patent publication US6046209A (priority 1998, dated 2000):

Experiments:
Colon Carcinoma 26 = assay: Efficacy in mouse tumor model Colon Carcinoma 26; format: in vivo
Experimental: (§1) The efficacy of the compounds of the present invention was also tested in vivo using three well-known mouse tumor models: L1210, Lewis Lung, and Colon Carcinoma 26.

L1210 = assay: Efficacy in mouse tumor model L1210; format: in vivo
Experimental: as §1

Lewis Lung = assay: Efficacy in mouse tumor model Lewis Lung; format: in vivo
Experimental: as §1

[1] = system: topoisomerase I; mouse tumor models; assay: Overall comparison of topoisomerase I inhibition ability, cytotoxicity and efficacy in mouse tumor models; details: results of Table I
[2] = system: solid tumor cancers, particularly ovarian cancer and non-small cell lung carcinoma; details: humans; cited from earlier work
topoisomerase II = details: cited from earlier work
[3] = in vivo; cited from earlier work

With `CC[C@@]1(O)C(=O)OCc2c1cc1n(c2=O)Cc2cc3ccccc3nc2-1` [Camptothecin] the “% Inc. in Lifespan, Colon 26” value (Colon Carcinoma 26; 4 mg/kg ip) was 50% and the “% Inc. in Lifespan, L1210” value (L1210; 12 mg/kg ip) was 133%.
In the case of `CC[C@@]1(O)C(=O)OCc2c1cc1n(c2=O)Cc2cc3c4c(ccc3nc2-1)OC(CN1CCOCC1)C4` (stereo partly drawn) [Formula III, (8S)-8-ethyl-1,2-dihydro-8-hydroxy-2(4-morpholinylmethyl)-11H-furano[3,2-f]-pyrano[3',4':6,7]indolizino[1,2-b]quinoline-9,12(8H,14H)-dione], the “% Inc. in Lifespan, Lewis Lung” value (Lewis Lung; 22 mg/kg ip) is reported as over 225%, the “biological activity compared with camptothecin and topotecan” value [1] is reported as “comparable to camptothecin and topotecan” and the “% Inc. in Lifespan, Colon 26” value (Colon Carcinoma 26; 20 mg/kg sc) is reported as 45%. For the same compound, the “% Inc. in Lifespan, L1210” value (L1210; 42 mg/kg ip) was 350%.
With `CC[C@@]1(O)C(=O)OCc2c1cc1n(c2=O)Cc2cc3c4c(ccc3nc2-1)OC(CN(C)C)C4` (stereo partly drawn) [Formula IV, (8S)-2-[(dimethylamino)methyl]-8-ethyl-1,2-dihydro-8-hydroxy-11H-furano[3,2-f]-pyrano[3',4':6,7]indolizino[1,2-b]quinoline-9,12(8H,14H)-dione] the “% Inc. in Lifespan, Lewis Lung” value (Lewis Lung; 9 mg/kg ip) was 67%, the “biological activity compared with camptothecin and topotecan” value [1] was “comparable to camptothecin and topotecan” and the “% Inc. in Lifespan, Colon 26” value (Colon Carcinoma 26; 20 mg/kg sc) was 32%. For the same compound, the “% Inc. in Lifespan, L1210” value (L1210; 15 mg/kg ip) was 225%.
In the case of `CC[C@@]1(O)C(=O)OCc2c1cc1n(c2=O)Cc2cc3c(CN(C)C)c(O)ccc3nc2-1` [Topotecan, 9-dimethylaminomethyl-10-hydroxycamptothecin], the “efficacy in clinical tests” value [2] is listed as “efficacy against several solid tumor cancers, particularly ovarian cancer and non-small cell lung carcinoma”, the “% Inc. in Lifespan, Lewis Lung” value (Lewis Lung; 15 mg/kg ip) is listed as 106% and the “% Inc. in Lifespan, Colon 26” value (Colon Carcinoma 26; 20 mg/kg sc) is listed as 45%. The “% Inc. in Lifespan, L1210” value (L1210; 15 mg/kg ip) was 217%.
For `COc1cccc2c1C(=O)c1c(O)c3c(c(O)c1C2=O)C[C@@](O)(C(=O)CO)C[C@@H]3O[C@H]1C[C@H](N)[C@H](O)[C@H](C)O1` [doxorubicin], the “effect on topoisomerase II” value (topoisomerase II) is listed as “Inhibition of topoisomerase II”.
In the case of `COc1cc([C@@H]2c3cc4c(cc3[C@@H](O[C@@H]3O[C@@H]5CO[C@@H](C)O[C@H]5[C@H](O)[C@H]3O)[C@H]3COC(=O)[C@H]23)OCO4)cc(OC)c1O` [etoposide], the “effect on topoisomerase II” value (topoisomerase II) is listed as “Inhibition of topoisomerase II”.
For `O=C1c2c(O)ccc(O)c2C(=O)c2c(NCCNCCO)ccc(NCCNCCO)c21` [mitoxantrone], the “effect on topoisomerase II” value (topoisomerase II) is listed as “Inhibition of topoisomerase II”.
In the case of “(S)-10-amino-4-ethyl-4-hydroxy-1H-pyrano[3',4':6,7]indolizino[1,2-b]quinoline-3,14(4H,12H)-dione [CPT-11]”, the toxicity profile [3] is given as “adverse toxicity profile”.
